Results reported in patent publication US12268683B2, “Compounds and methods for synergistic activation of M channels” (THE REGENTS OF THE UNIVERSITY OF CALIFORNIA, priority 2018, dated 2025).

Tests used:
Format in all cases: cell-based
KCNQ3/KCNQ5 = KCNQ3/KCNQ5 (Homo sapiens, UniProt O43525+Q9NR82); assay: TEVC of KCNQ3/KCNQ5 channels; conditions: similar potency
Text: (§1) As previously described (12), we generated cRNA transcripts encoding human KCNA1, KCNE1, KCNE2, KCNE3, KCNQ1, KCNQ2, KCNQ3, KCNQ4 or KCNQ5 by in vitro transcription using the T7 polymerase mMessage mMachine kit (Thermo Fisher Scientific), after vector linearization, from cDNA sub-cloned into plasmids incorporating Xenopus laevis β-globin 5′ and 3′ UTRs flanking the coding region to enhance translation and cRNA stability. We quantified cRNA by spectrophotometry. We generated mutant KCNQ2 and KCNQ3 cDNAs by site-directed mutagenesis with a QuikChange kit (Stratagene, San Diego, Calif.) and prepared the cRNAs as above. We injected defolliculated stage V and VI Xenopus laevis oocytes (Ecocyte Bioscience, Austin, Tex. and Xenoocyte, Dexter, Mich., US) with KCNE and/or KCNQ cRNAs (5-20 ng). […]
(§2) We performed TEVC at room temperature using an OC-725C amplifier (Warner Instruments, Hamden, Conn.) and pClamp10 software (Molecular Devices, Sunnyvale, Calif.) 2-5 days after cRNA injection as described in the section above. […] We recorded currents in response to voltage pulses between −120 or −80 mV and +40 mV at 20 mV intervals from a holding potential of −80 mV, to yield current-voltage relationships, current magnitude, and for quantifying activation rate. We analyzed data using Clampfit (Molecular Devices) and Graphpad Prism software (GraphPad, San Diego, Calif., USA); values are stated as mean±SEM. […]

KCNQ2/KCNQ3-R242A = KCNQ2/KCNQ3-R242A (Homo sapiens, UniProt O43525+O43526, R242A); assay: TEVC of KCNQ2/KCNQ3-R242A channels
Text: as §1, §2

KCNQ2-R213A/KCNQ3 = KCNQ2-R213A/KCNQ3 (Homo sapiens, UniProt O43525+O43526, R213A); assay: TEVC of KCNQ2-R213A/KCNQ3 channels
Text: as §1, §2

KCNQ1-R243A/KCNE1 = KCNQ1-R243A/KCNE1 (Homo sapiens, UniProt P51787, R243A); assay: TEVC of R243A KCNQ1/KCNE1 channels
Text: as §1, §2

CCCCCCCCC/C=C/C=O [(E)-2-dodecenal]
efficacy on KCNQ3/KCNQ5, lower than on KCNQ5 (KCNQ3/KCNQ5): ~30% | response of KCNQ2/KCNQ3-R242A (in words) (KCNQ2/KCNQ3-R242A): almost as much as wild-type KCNQ2/3 | effect on KCNQ2-R213A/KCNQ3 (in words) (KCNQ2-R213A/KCNQ3): completely insensitive | effect of R243A mutation on (E)-2-dodecenal action in KCNQ1/KCNE1 (KCNQ1-R243A/KCNE1): reduced (E)-2-dodecenal efficacy twofold
